Patent US10047031B2, “Organic compounds” (GIVAUDAN SA, priority 2014, dated 2018)

Assays:
guinea-pigs = details: guinea pig, in vivo; cited from earlier work
mice = details: mouse, in vivo; cited from earlier work
primates = details: cited from earlier work
rat hepatocytes = assay: in vitro metabolism in rat hepatocytes in suspension (GC-MS); type: in vitro ADME; details: incubated with hepatocytes isolated from rats, 'substantially no' = below limit of detection, i.e. <1%
Text: Decrease of Lilial™ and the compound released by the precursor of the present invention, and formation of the corresponding benzoic acid derivative may be analysed by GC-MS.
By “substantially no benzoic acid derivative” is meant that the concentration of said derivative is below the limit of detection, i.e. <1%. As such, the precursor releasing the compound of formula (I) provides perfumers with an eminently suitable surrogate for the valuable yet problematic Lilial™.

| enzymatic degradation to / formation of the corresponding benzoic acid derivative (rat hepatocytes) | enzymatic degradation to / formation of the corresponding benzoic acid derivative (rat hepatocytes; listed as compound released by the precursor of the present invention) | Compound | effects (reproductive toxicity) (guinea-pigs) | effects (reproductive toxicity) (mice) | effects (reproductive toxicity) (primates) |
| --- | --- | --- | --- | --- | --- |
|  |  | CC(C=O)Cc1ccc(C(C)(C)C)cc1 (centres unmarked) [Lilial™, 3-(4-tert-butylphenyl)-2-methylpropanal] | No effects | No effects | No effects |
| no, or substantially no | not susceptible | Cc1cc(CC(C)C)ccc1CCC=O [compound of formula (I), 3-(4-isobutyl-2-methylphenyl)propanal] |  |  |  |
